Data: ChEMBL document CHEMBL3351688, “Studies on the anticonvulsant activity of 4-alkyl-1,2,4-triazole-3-thiones and their effect on GABAergic system” (Eur J Med Chem, 2014)

How the values were obtained:
Rattus norvegicus = organism: Rattus norvegicus; assay: Displacement of [3H]flunitrazepam form benzodiazepine receptor in rat cerebral cortex assessed as specific radio-ligand binding level at 1 uM incubated for 20 mins by liquid scintillation counting method; assay type: tissue-based
[1] = Toxicity in Swiss mouse assessed as effect on motor performance administered intraperitoneally 30 mins before test by Chimney test; assay type: organism-based; settings: in vivo, ip
Mus musculus [2] = assay: Anticonvulsant activity in Swiss mouse assessed as protection against seizures at 300 mg/kg, ip administered 15 mins before test by maximal electroshock seizure test; assay type: functional; settings: route intraperitoneal
Mus musculus [3] = assay: Anticonvulsant activity in Swiss mouse assessed as protection against seizures administered intraperitoneally 30 mins before test by maximal electroshock seizure test; assay type: functional; settings: ip
[4] = Protective index, ratio of TD50 in ip Swiss mouse dosed intraperitoneally 15 mins before test by Chimney test to anticonvulsant ED50 in Swiss mouse dosed intraperitoneally 15 mins before test by MES test; assay type: ADME, organism-based; settings: in vivo, read-out: Ratio TD50/ED50
[5] = Toxicity in Swiss mouse assessed as effect on motor performance administered intraperitoneally 120 mins before test by Chimney test; assay type: organism-based; settings: in vivo, ip
Mus musculus [6] = assay: Anticonvulsant activity in Swiss mouse assessed as protection against seizures at 300 mg/kg, ip administered 30 mins before test by maximal electroshock seizure test; assay type: functional; settings: route intraperitoneal
[7] = Protective index, ratio of TD50 in ip Swiss mouse dosed intraperitoneally 30 mins before test by Chimney test to anticonvulsant ED50 in Swiss mouse dosed intraperitoneally 30 mins before test by MES test; assay type: ADME, organism-based; settings: in vivo, read-out: Ratio TD50/ED50
[8] = Protective index, ratio of TD50 in ip Swiss mouse dosed intraperitoneally 120 mins before test by Chimney test to anticonvulsant ED50 in Swiss mouse dosed intraperitoneally 120 mins before test by MES test; assay type: ADME, organism-based; settings: in vivo, read-out: Ratio TD50/ED50
Mus musculus [9] = assay: Anticonvulsant activity in Swiss mouse assessed as protection against seizures administered intraperitoneally 60 mins before test by maximal electroshock seizure test; assay type: functional; settings: ip
Mus musculus [10] = assay: Anticonvulsant activity in Swiss mouse assessed as protection against seizures administered intraperitoneally 15 mins before test by maximal electroshock seizure test; assay type: functional; settings: ip
[11] = Toxicity in Swiss mouse assessed as effect on motor performance administered intraperitoneally 15 mins before test by Chimney test; assay type: organism-based; settings: in vivo, ip
Mus musculus [12] = assay: Anticonvulsant activity in Swiss mouse assessed as protection against seizures at 300 mg/kg, ip administered 60 mins before test by maximal electroshock seizure test; assay type: functional; settings: route intraperitoneal
[13] = target: GABA-A receptor; anion channel (Homo sapiens) (UniProt P14867+P47870+P18507+P28472+P48169+Q99928+Q9UN88+P34903+O00591+O14764+Q8N1C3+P18505+P78334+P47869+P31644+Q16445); assay: Displacement of [3H]muscimol form GABAA receptor in rat cerebral cortex assessed as specific radio-ligand binding level at 1 uM incubated for 10 mins by liquid scintillation counting method; assay type: tissue-based; settings: target entry is the homologue from another species
[14] = Protective index, ratio of TD50 in ip Swiss mouse dosed intraperitoneally 60 mins before test by Chimney test to anticonvulsant ED50 in Swiss mouse dosed intraperitoneally 60 mins before test by MES test; assay type: ADME, organism-based; settings: in vivo, read-out: Ratio TD50/ED50
Mus musculus [15] = assay: Anticonvulsant activity in Swiss mouse assessed as protection against seizures at 300 mg/kg, ip administered 120 mins before test by maximal electroshock seizure test; assay type: functional; settings: route intraperitoneal
Mus musculus [16] = assay: Anticonvulsant activity in Swiss mouse assessed as protection against seizures administered intraperitoneally 120 mins before test by maximal electroshock seizure test; assay type: functional; settings: ip
[17] = Toxicity in Swiss mouse assessed as effect on motor performance administered intraperitoneally 60 mins before test by Chimney test; assay type: organism-based; settings: in vivo, ip

| SMILES | Activity (Rattus norvegicus) [%] | TD50 at 0.5 h [1] [mg/kg] | Activity (Mus musculus [2]) [%] | ED50 (Mus musculus [3]) [mg/kg] | selectivity ratio at 0.25 h [4] | TD50 at 2 h [5] [mg/kg] | Activity (Mus musculus [6]) [%] | selectivity ratio at 0.5 h [7] | selectivity ratio at 2 h [8] | ED50 (Mus musculus [9]) [mg/kg] | ED50 (Mus musculus [10]) [mg/kg] | TD50 at 0.25 h [11] [mg/kg] | Activity (Mus musculus [12]) [%] | Activity [13] [%] | selectivity ratio at 1 h [14] | Activity (Mus musculus [15]) [%] | ED50 (Mus musculus [16]) [mg/kg] | TD50 at 1 h [17] [mg/kg] |
| --- | --- | --- | --- | --- | --- | --- | --- | --- | --- | --- | --- | --- | --- | --- | --- | --- | --- | --- |
| Cc1ccc(-c2nc3ccc(C)cn3c2CC(=O)N(C)C)cc1 | 73 | – | – | – | – | – | – | – | – | – | – | – | – | – | – | – | – | – |
| CCCCCCCCn1c(Cc2cccc(Cl)c2)n[nH]c1=S | 0 | 486 | 100 | 166 | 2.4 | 441 | 100 | 2.9 | 2 | 153 | 162 | 391 | 100 | 8 | 2.8 | 82.5 | 224 | 436 |
| CCCCCCCn1c(Cc2cccc(Cl)c2)n[nH]c1=S | 1 | 640 | 100 | 76.3 | 10.2 | 442 | 100 | 8.4 | 4.9 | 70.6 | 49.7 | 507 | 100 | 4 | 7.3 | 100 | 89.6 | 519 |
| CCCCn1c(-c2cccc(Cl)c2Cl)n[nH]c1=S | 14 | – | 12.5 | – | – | – | 12.5 | – | – | – | – | – | 25 | 16 | – | 0 | – | – |
| CCCCCCn1c(-c2cccc(Cl)c2Cl)n[nH]c1=S | 10 | – | 12.5 | – | – | – | 12.5 | – | – | – | – | – | 25 | 2 | – | 12.5 | – | – |
| NCCCC(=O)O | – | – | – | – | – | – | – | – | – | – | – | – | – | 82 | – | – | – | – |
| CCCCCCCCCCn1c(Cc2cccc(Cl)c2)n[nH]c1=S | 12 | – | 0 | – | – | – | 0 | – | – | – | – | – | 0 | 15 | – | 0 | – | – |
| CCCCCCCn1c(-c2cccc(Cl)c2Cl)n[nH]c1=S | 8 | – | 25 | – | – | – | 25 | – | – | – | – | – | 25 | 3 | – | 12.5 | – | – |
| CCCCCCCCCn1c(Cc2cccc(Cl)c2)n[nH]c1=S | 0 | 493 | 82.5 | 117 | 2.5 | 465 | 100 | 4.2 | 2.3 | 86.8 | 193 | 476 | 100 | 0 | 5.7 | 82.5 | 200 | 493 |
| CCCCCn1c(Cc2cccc(Cl)c2)n[nH]c1=S | 14 | 322 | 100 | 62.5 | 7.6 | 348 | 100 | 5.2 | 4.1 | 68.4 | 48.5 | 371 | 100 | 10 | 4.8 | 100 | 84.2 | 329 |
| CCCCCCn1c(Cc2cccc(Cl)c2)n[nH]c1=S | 1 | > 1000 | 100 | 74.5 | > 13.9 | 548 | 100 | > 13.4 | 5.6 | 83.6 | 72.1 | > 1000 | 100 | 3 | 6.5 | 100 | 97.9 | 541 |
| CN1C(=O)CN=C(c2ccccc2)c2cc(Cl)ccc21 | 83 | – | – | – | – | – | – | – | – | – | – | – | – | – | – | – | – | – |
| CCn1c(-c2cccc(Cl)c2Cl)n[nH]c1=S | 5 | – | 0 | – | – | – | 0 | – | – | – | – | – | 0 | 19 | – | 0 | – | – |
| CCn1c(Cc2cccc(Cl)c2)n[nH]c1=S | 15 | 285 | 100 | 54.4 | 5.8 | 345 | 100 | 5.2 | 3.9 | 69.9 | 51.1 | 297 | 100 | 0 | 4.1 | 100 | 88.3 | 290 |
| CCCCCn1c(-c2cccc(Cl)c2Cl)n[nH]c1=S | 18 | 354 | 37.5 | 276 | 1.2 | 326 | 62.5 | 1.3 | – | 285 | 329 | 386 | 62.5 | 0 | 1.2 | 37.5 | 348 | 348 |
| CCCCn1c(Cc2cccc(Cl)c2)n[nH]c1=S | 0 | 310 | 100 | 43.2 | 7.3 | 325 | 100 | 7.2 | 3.2 | 61.5 | 44.5 | 326 | 100 | 13 | 4.8 | 100 | 102 | 298 |
| CCCCCCCCCCCCn1c(Cc2cccc(Cl)c2)n[nH]c1=S | 12 | – | 0 | – | – | – | 0 | – | – | – | – | – | 0 | 0 | – | 0 | – | – |
